Assay results from ChEMBL document CHEMBL3217431, “Synthesis, in silico screening and bioevaluation of dispiro-cycloalkanones as antitubercular and mycobacterial NAD+-dependent DNA ligase inhibitors” (Medchemcomm, 2011).
Values after ≈ are worked out from the molar mass of the structure shown.

Test system: Escherichia coli
Experiment: In vivo antibacterial activity against Escherichia coli GR501 harboring lig251 temperature-sensitive mutant gene transformed with plasmid encoding Mycobacterium tuberculosis NAD+ DNA ligase assessed as growth inhibition after 20 hrs by microdilution assay
Type: functional
Details: GR501, 20 h

O=C1C2(CCCC13CC3c1ccc(F)cc1)CC2c1ccc(F)cc1 (configuration not stated)
MIC: 44.3 µM (≈ 15 µg/mL)

O=C1C2(CCCC13CC3c1ccc(Br)cc1)CC2c1ccc(Br)cc1 (configuration not stated)
MIC: 52.1 µM (≈ 24 µg/mL)
